Earlier results, collected in US20070213270A1, “PEPTIDE YY FORMULATIONS HAVING INCREASED STABILITY AND RESISTANCE TO MICROBIAL AGENTS” (priority 2004, published 2007).

What was measured:
[1] = aqueous solution at physiologic pH

In the case of “2-alkyl-4-hydroxyquinolines [pyo compound]”, the “concentration producing ciliostasis / inhibiting ciliary motility” value (ciliary motility) is listed as 50 µg/mL.
In the case of CC(C)CC(N)B(O)O (centres unmarked) [boro-leucine], the “effectiveness in enzyme inhibition relative to bestatin” value (aminopeptidases) is listed as “more than 100 times” and the “effectiveness in enzyme inhibition relative to puromycin” value (aminopeptidases) is listed as “more than 1000 times”.
For CCN(CC)/[N+]([O-])=N/O.CCNCC [diethylamine/NO], the “rate of NO release” value [1] is listed as under 3 min.
In the case of NCCN(CCN)/[N+]([O-])=N/O [diethylenetriamine/NO (DETANO), diethylenetriamine/NO], the “rate of NO release” value [1] is listed as “approximately 20 hours”.
